Oligonucleotides are written 5' to 3', each unit as a sugar letter and its base; * is a phosphorothioate linkage, no mark a phosphodiester; rarer units and linkages stand in square brackets, end groups in braces. Plain capitals give the bases only. k = constrained ethyl (cEt); d = 2'-deoxy (DNA)
System: TMPRSS2 mRNA
Assay: TMPRSS2 mRNA levels in LMR20 cells
Assay type: cell-based, human
Details: for TMPRSS2 mRNA levels (% baseline value) after treatment with DHT / TMPRSS2 mRNA levels (% baseline value) after treatment with R1881 / TMPRSS2 mRNA levels (% baseline value) of cells without AR agonist treatment: LMR20 cells; for TMPRSS2 mRNA levels (% baseline value) after treatment with DHT: DHT 10 nM 72 hrs; for TMPRSS2 mRNA levels (% baseline value) after treatment with R1881: R1881 10 nM 72 hrs; for TMPRSS2 mRNA levels (% baseline value) of cells without AR agonist treatment: no AR agonist
Description: LMR20 cells were plated at 1,500 cells per well in phenol red-free medium with CSS.

| Substance | TMPRSS2 mRNA levels (% baseline value) after treatment with DHT (ASO 0.04 μM) [% baseline value] | TMPRSS2 mRNA levels (% baseline value) after treatment with DHT (ASO 0.20 μM) [% baseline value] | TMPRSS2 mRNA levels (% baseline value) after treatment with DHT (ASO 1.0 μM) [% baseline value] | TMPRSS2 mRNA levels (% baseline value) after treatment with DHT (ASO 5.0 μM) [% baseline value] | TMPRSS2 mRNA levels (% baseline value) after treatment with R1881 (ASO 0.04 μM) [% baseline value] | TMPRSS2 mRNA levels (% baseline value) after treatment with R1881 (ASO 0.20 μM) [% baseline value] | TMPRSS2 mRNA levels (% baseline value) after treatment with R1881 (ASO 1.0 μM) [% baseline value] | TMPRSS2 mRNA levels (% baseline value) after treatment with R1881 (ASO 5.0 μM) [% baseline value] | TMPRSS2 mRNA levels (% baseline value) of cells without AR agonist treatment (ASO 0.04 μM) [% baseline value] | TMPRSS2 mRNA levels (% baseline value) of cells without AR agonist treatment (ASO 0.20 μM) [% baseline value] | TMPRSS2 mRNA levels (% baseline value) of cells without AR agonist treatment (ASO 1.0 μM) [% baseline value] | TMPRSS2 mRNA levels (% baseline value) of cells without AR agonist treatment (ASO 5.0 μM) [% baseline value] | TMPRSS2 mRNA levels in LMR20 cells (with or without DHT/R1881) |
| --- | --- | --- | --- | --- | --- | --- | --- | --- | --- | --- | --- | --- | --- |
| 549458 (kG*kT*kT*dG*dA*dT*dT*dT*dA*dA*dT*dG*dG*kT*kT*kG) [compound 549458] | 127 | 119 | 106 | 91 | 137 | 119 | 96 | 96 | 110 | 85 | 54 | 62 | – |
| GTTGATTTAATGGTTG (all phosphorothioate, sugars by position not given here; further chemistry not fully specified) [ISIS 549458] | – | – | – | – | – | – | – | – | – | – | – | – | reduced PSA levels and TMPRSS2 more extensively than the LNA gapmer ISIS 554221 or MDV3100 |
